Measured values reported in US20220248678A1, “HERBICIDAL COMPOUNDS” (SYNGENTA CROP PROTECTION AG, priority 2019, published 2022).

Assays:
Test in all cases: Post-emergence efficacy, glasshouse
Assay type in all cases: in vivo
Conditions in all cases: after 13 days, 100=total damage to plant, 0=no damage to plant
[1] = tested on: Amaranthus palmeri (AMAPA)
Procedure: (§1) Seeds of a variety of test species were shown in standard soil in pots. After cultivation for 14 days (post-emergence) under controlled conditions in a glasshouse (at 24/16° C., day/night; 14 hours light; 65% humidity), the plants were sprayed with an aqueous spray solution derived from the dissolution of the technical active ingredient for each of compounds 1 to 26 from Table A above, in a small amount of acetone and a special solvent and emulsifier mixture referred to as IF50 (11.12% Emulsogen EL360 TM+44.44% N-methylpyrrolidone+44.44% Dowanol DPM glycol ether), to create a 50 g/I solution which was then diluted to required concentration using 0.25% or 1% Empicol ESC70 (Sodium lauryl ether sulphate)+1% ammonium sulphate in water as diluent. These spray test compositions are described as composition numbers C1 to C26, with the numerical value corresponding to the compound number from Table A.
(§2) The test plants were then grown in a glasshouse under controlled conditions (at 24/16° C., day/night; 14 hours light; 65% humidity) and watered twice daily. After 13 days the test was evaluated (100=total damage to plant; 0=no damage to plant).
(§3) Ipomoea hederacea (IPOHE), Euphorbia heterophylla (EPHHL), Chenopodium album (CHEAL), Amaranthus palmeri (AMAPA), Lolium perenne (LOLPE), Digitaria sanguinalis (DIGSA), Eleusine indica (ELEIN), Echinochloa crus-galli (ECHCG), Setaria faberi (SETFA)

[2] = tested on: Chenopodium album (CHEAL)
Procedure: as §1, §2, §3

[3] = tested on: Digitaria sanguinalis (DIGSA)
Procedure: as §1, §2, §3

[4] = tested on: Echinochloa crus-galli (ECHCG)
Procedure: as §1, §2, §3

[5] = tested on: Eleusine indica (ELEIN)
Procedure: as §1, §2, §3

[6] = tested on: Euphorbia heterophylla (EPHHL)
Procedure: as §1, §2, §3

[7] = tested on: Ipomoea hederacea (IPOHE)
Procedure: as §1, §2, §3

[8] = tested on: Lolium perenne (LOLPE)
Procedure: as §1, §2, §3

[9] = tested on: Setaria faberi (SETFA)
Procedure: as §1, §2, §3

| SMILES | Control of weed species AMAPA ([1]; 1000 g/Ha) | Control of weed species CHEAL ([2]; 1000 g/Ha) | Control of weed species DIGSA ([3]; 1000 g/Ha) | Control of weed species ECHCG ([4]; 1000 g/Ha) | Control of weed species ELEIN ([5]; 1000 g/Ha) | Control of weed species EPHHL ([6]; 1000 g/Ha) | Control of weed species IPOHE ([7]; 1000 g/Ha) | Control of weed species LOLPE ([8]; 1000 g/Ha) | Control of weed species SETFA ([9]; 1000 g/Ha) | Control of weed species AMAPA ([1]; 500 g/Ha) | Control of weed species CHEAL ([2]; 500 g/Ha) | Control of weed species DIGSA ([3]; 500 g/Ha) | Control of weed species ECHCG ([4]; 500 g/Ha) | Control of weed species ELEIN ([5]; 500 g/Ha) | Control of weed species EPHHL ([6]; 500 g/Ha) | Control of weed species IPOHE ([7]; 500 g/Ha) | Control of weed species LOLPE ([8]; 500 g/Ha) | Control of weed species SETFA ([9]; 500 g/Ha) | other results |
| --- | --- | --- | --- | --- | --- | --- | --- | --- | --- | --- | --- | --- | --- | --- | --- | --- | --- | --- | --- |
| COc1cccc2c(P(=O)([O-])OC)c[n+](C)nc12 [Composition C18] | 100 | 80 | 100 | 100 | 100 | 100 | 80 | 80 | 100 | – | – | – | – | – | – | – | – | – | – |
| COP(=O)([O-])c1c[n+](C)nc2ccc(C(F)(F)F)cc12 [Composition C19] | – | – | – | – | – | – | – | – | – | 10 | 10 | 10 | 10 | 10 | 0 | 0 | 10 | 10 | – |
| COP(=O)([O-])c1c[n+](C)nc2cc(C(F)(F)F)ccc12 [Composition C20] | 40 | 40 | 20 | 10 | 10 | 30 | 60 | 10 | 10 | – | – | – | – | – | – | – | – | – | – |
| CCCOP(=O)([O-])c1c[n+](C)nc2ccccc12 [Composition C21] | – | – | – | – | – | – | – | – | – | 100 | 100 | 100 | 70 | 100 | 100 | 100 | 70 | 100 | – |
| C[n+]1cc(P(=O)([O-])OCc2ccccc2)c2ccccc2n1 [Composition C22] | – | – | – | – | – | – | – | – | – | 10 | 20 | 60 | 20 | 60 | 60 | 20 | 10 | 30 | – |
| C[n+]1cc(P(=O)([O-])OCc2ccc(F)cc2)c2ccccc2n1 [Composition C23] | – | – | – | – | – | – | – | – | – | – | – | – | – | – | – | – | – | – | Control of weed species AMAPA ([1]; 125 g/Ha): 20; Control of weed species CHEAL ([2]; 125 g/Ha): 10; Control of weed species DIGSA ([3]; 125 g/Ha): 60; Control of weed species ECHCG ([4]; 125 g/Ha): 30; Control of weed species ELEIN ([5]; 125 g/Ha): 40; Control of weed species EPHHL ([6]; 125 g/Ha): 40; Control of weed species IPOHE ([7]; 125 g/Ha): 10; Control of weed species LOLPE ([8]; 125 g/Ha): 10; Control of weed species SETFA ([9]; 125 g/Ha): 30 |
| C[n+]1cc(P(=O)([O-])OCC2CCCO2)c2ccccc2n1 (stereo not drawn) [Composition C25] | 100 | 90 | 50 | 90 | 100 | 80 | 60 | 60 | 80 | – | – | – | – | – | – | – | – | – | – |
| CC(C)COP(=O)([O-])c1c[n+](C)nc2ccccc12 [Composition C26] | 100 | 90 | 60 | 60 | 90 | 100 | 60 | 40 | 90 | – | – | – | – | – | – | – | – | – | – |
| COP(=O)([O-])c1c[n+](C)nc2ccccc12 [Composition C27] | – | – | – | – | – | – | – | – | – | 100 | 100 | 100 | 100 | 100 | 100 | 90 | 90 | 100 | – |
